The values that follow come from patent US12448398B2, “Semi-synthetic analogues of epipolythiodioxopiperazine alkaloids” (Ohio State Innovation Foundation, priority 2019, dated 2025).

SMILES strings stand for the structures.

Data set [1] deals with MLL1 (Homo sapiens, UniProt Q03164). As to conditions: in pancreatic cancer; cited from earlier work.
In data set [2] the test system is PANC02-H7 or UN-KC-6141 cells. To be noted: combination of 3 and anti PD-L1; cited from earlier work.
Data set [3] has as its system metastatic colon carcinoma. To be noted: combined treatment of 3 and 5-fluorouracil; cited from earlier work.
The test system of data set [4] is panel of cancer cell lines. As to conditions: cited from earlier work.
Data set [5] relates to MDA-MB-435, MDA-MB-231 and OVCAR3 cells. The experiment in a line: Cytotoxicity assay against a panel of three cancer cell lines (CellTiter 96 AQueous, 72 h). As to conditions: panel MDA-MB-435, MDA-MB-231, OVCAR3; relative to parent natural product. Format: cell-based, human. As for the experimental part:
(§1) Human melanoma cancer cells (MDA-MB-435), human breast cancer cells (MDA-MB-231) and human ovarian cancer cells (OVCAR3) were obtained from the American Type Culture Collection (Manassas, VA). The cell lines were cultured in RPMI 1640 medium containing fetal 10% bovine serum, 100 unites/mL penicillin and 100 μg/mL streptomycin. The cells were grown at 37° C. under 5% CO2, and then harvested during the log-phase growth by trypsinization followed by two washing to remove all traces of enzymes. Cells were seeded in 96-well clear, flat-bottom plate (Microtest 96, Falcon) at a density of 5000 cells per well. Each plate was incubated overnight at 37° C. under 5% CO2. Samples dissolved in DMSO were diluted and added to the appropriate wells to give final concentrations of 20, 4, 0.8, 0.16, and 0.032 μM for pure compounds, and a total volume of 100 μL and 0.5% DMSO per well. The cells with the test samples were then incubated for 72 h at 37° C. Cell viability was examined using a commercial absorbance assay (CellTiter 96® AQueous One Solution Cell Proliferation Assay, Promega Corp, Madison, WI). IC50 values were determined as the concentration required to diminish cellular growth by 50% compared to the untreated controls after 72 h of continuous exposure. Taxol (Paclitaxel) was used as a positive control.
Human melanoma cancer cells (MDA-MB-435), human breast cancer cells (MDA-MB-231) and human ovarian cancer cells (OVCAR3) were produced from the American Type Culture Collection (Manassas, VA). RPMI 1640 medium (fetal 10% bovine serum, 100 unites/mL penicillin and 100 μg/mL streptomycin) was used to culture cell lines. The cells were grown at 37° C. under 5% CO2, then harvested during the log-phase growth by trypsinization followed by two washing to remove all traces of enzymes. 96-well clear, flat-bottom plate (Microtest 96, Falcon) was used to seed the cells at a density of 5000 cells per well. […] Cell viability was examined using a commercial absorbance assay (CellTiter 96® AQueous One Solution Cell Proliferation Assay, Promega Corp, Madison, WI). […]

Data set [6] deals with MDA-MB-231 cells. The experiment in a line: Cytotoxicity assay, human breast cancer cells. To be noted: vs verticillin H. Format: cell-based. The protocol: as §1, with “The cells with the test samples were then incubated for 72 h at 37° C.” left out, “IC50 values were determined as the concentration required to diminish cellular growth by 50% compared to the untreated controls after 72 h of continuous exposure. Taxol (Paclitaxel) was used as a positive control.” left out
(§2) Human melanoma cancer cells (MDA-MB-435), human breast cancer cells (MDA-MB-231) and human ovarian cancer cells (OVCAR3) were produced from the American Type Culture Collection (Manassas, VA). […] Cell viability was examined using a commercial absorbance assay (CellTiter 96® AQueous One Solution Cell Proliferation Assay, Promega Corp, Madison, WI). […]

In data set [7] the test system is OVCAR3 cells. The experiment in a line: Cytotoxicity assay, human ovarian cancer cells. Format: cell-based. As to conditions: vs verticillin H. As for the experimental part:
as §1, with “The cells with the test samples were then incubated for 72 h at 37° C.” left out, “IC50 values were determined as the concentration required to diminish cellular growth by 50% compared to the untreated controls after 72 h of continuous exposure. Taxol (Paclitaxel) was used as a positive control.” left out
as §2

Chain of MLL1 (Q15291 whole entry): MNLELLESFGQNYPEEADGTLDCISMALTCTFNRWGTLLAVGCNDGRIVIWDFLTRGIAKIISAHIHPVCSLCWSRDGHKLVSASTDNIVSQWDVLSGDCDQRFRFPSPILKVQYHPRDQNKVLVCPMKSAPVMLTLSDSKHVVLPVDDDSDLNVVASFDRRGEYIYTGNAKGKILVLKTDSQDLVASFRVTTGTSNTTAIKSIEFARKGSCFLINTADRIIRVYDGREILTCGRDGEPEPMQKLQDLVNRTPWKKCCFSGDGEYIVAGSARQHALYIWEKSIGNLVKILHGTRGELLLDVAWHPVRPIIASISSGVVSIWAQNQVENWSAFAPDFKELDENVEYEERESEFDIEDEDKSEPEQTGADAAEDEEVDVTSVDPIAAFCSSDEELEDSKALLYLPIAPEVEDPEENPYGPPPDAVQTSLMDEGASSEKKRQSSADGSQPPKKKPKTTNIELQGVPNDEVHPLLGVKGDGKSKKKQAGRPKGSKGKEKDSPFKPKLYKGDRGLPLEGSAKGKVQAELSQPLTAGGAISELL
Chain of MLL1 (Q9UBL3 96-628, further chain): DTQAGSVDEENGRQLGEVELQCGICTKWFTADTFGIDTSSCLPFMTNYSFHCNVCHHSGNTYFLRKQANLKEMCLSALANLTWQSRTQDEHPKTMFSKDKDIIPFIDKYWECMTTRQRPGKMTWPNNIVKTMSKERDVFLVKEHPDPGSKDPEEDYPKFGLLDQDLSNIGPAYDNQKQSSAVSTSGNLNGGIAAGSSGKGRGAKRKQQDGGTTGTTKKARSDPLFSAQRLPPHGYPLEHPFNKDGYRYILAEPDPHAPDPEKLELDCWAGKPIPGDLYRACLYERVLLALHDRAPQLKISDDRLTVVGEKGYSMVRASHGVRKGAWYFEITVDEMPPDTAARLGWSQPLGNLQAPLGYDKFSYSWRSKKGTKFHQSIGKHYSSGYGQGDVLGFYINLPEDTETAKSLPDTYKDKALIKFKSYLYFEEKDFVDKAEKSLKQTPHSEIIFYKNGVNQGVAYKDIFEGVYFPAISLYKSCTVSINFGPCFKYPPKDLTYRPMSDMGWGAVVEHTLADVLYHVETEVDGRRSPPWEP
Chain of MLL1 (Q03164 3745-3969): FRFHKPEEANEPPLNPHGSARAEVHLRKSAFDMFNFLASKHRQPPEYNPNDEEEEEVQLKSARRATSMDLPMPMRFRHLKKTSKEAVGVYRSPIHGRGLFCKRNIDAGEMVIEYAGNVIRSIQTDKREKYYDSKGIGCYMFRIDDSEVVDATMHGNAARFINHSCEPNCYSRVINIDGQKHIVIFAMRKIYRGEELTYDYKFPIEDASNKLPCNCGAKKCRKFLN

Consider `CN1C(=O)C23SSC1(C)C(=O)N2C1Nc2ccccc2C1(C12c4ccccc4NC1N1C(=O)C4(C)SSC1(C(=O)N4C)C2O)C3O` (centres unmarked) [Compound 3, verticillin A], for which the IC50 in data set [1] was 800 nM. In addition, the Tumor size result in data set [2] is given as “significantly smaller tumor size”. Besides, in data set [3], the “Tumor size compared to control” value was “significantly smaller tumors”. For the same compound, the “Cytotoxicity level, in words” value in data set [4] is recorded as “nanomolar cytotoxicity”.

On to `CCCC(=O)O[C@H]1[C@]2([C@@]34c5ccccc5N[C@@H]3N3C(=O)[C@]5(CC)SS[C@]3(C(=O)N5C)[C@H]4O)c3ccccc3N[C@@H]2N2C(=O)[C@]3(CC)SS[C@]12C(=O)N3C` [Compound 12], for which the “Potency compared with the parent compound, in words” value in data set [5] was “more potent”.

Turning to `CC[C@@]12SS[C@]3(C(=O)N1C)[C@@H](O)[C@]1([C@@]45c6ccccc6N[C@@H]4N4C(=O)[C@]6(CC)SS[C@]4(C(=O)N6C)[C@H]5OC(=O)C(C)(C)C)c4ccccc4N[C@@H]1N3C2=O` [Compound 14], the “Potency compared with the parent compound, in words” value in data set [5] is on record as “more potent”.

Regarding `CCOC(=O)O[C@H]1[C@]2([C@@]34c5ccccc5N[C@@H]3N3C(=O)[C@]5(CC)SS[C@]3(C(=O)N5C)[C@H]4O)c3ccccc3N[C@@H]2N2C(=O)[C@]3(CC)SS[C@]12C(=O)N3C` [Compound 16], the “Potency compared with the parent compound, in words” value in data set [5] was “more potent”. Also, the “Fold increase of potency relative to parent compound” value in data set [6] is listed as 4.4 fold.

With `CC[C@@]12SS[C@]3(C(=O)N1C)[C@@H](O)[C@]1([C@@]45c6ccccc6N[C@@H]4N4C(=O)[C@]6(CC)SS[C@]4(C(=O)N6C)[C@H]5OS(=O)(=O)c4ccc(F)cc4)c4ccccc4N[C@@H]1N3C2=O` [Compound 17], in data set [6], the “Fold loss of potency relative to parent compound” value is reported as 1.6 fold. In addition, in data set [7], the “Fold increase of potency relative to parent compound” value was 2.9 fold.

On to `CC[C@@]12SS[C@]3(C(=O)N1C)[C@@H](O)[C@]1([C@@]45c6ccccc6N[C@@H]4N4C(=O)[C@]6(CC)SS[C@]4(C(=O)N6C)[C@H]5OC(=O)N(C)C)c4ccccc4N[C@@H]1N3C2=O` [Compound 19], for which, in data set [7], the “Fold increase of potency relative to parent compound” value was determined as 12.0 fold.

Usually IC50 stands for the concentration at which inhibition is half-maximal.
